Experimental data from PubChem BioAssay AID248 (DTP/NCI, 2004).
Several values for one entry are separate records, joined by “and”; a condition that tells them apart may be missing. Identical values can stand only once. Inconclusive results and toxic doses are left out.

Test system: L1210 leukemia ip in BDF1 mice, survival T/C
Test: NCI In Vivo Anticancer Drug Screen. Data for tumor model L1210 Leukemia (intraperitoneal) in B6D2F1 (BDF1) mice
Settings: higher = longer survival
Method in brief: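 Tumor cells were implanted, animals were treated, and survival was followed. The result divides the treated measurement by the vehicle-control measurement.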

[1] = endpoint: mean survival time, dose: 100.0 mg/kg/injection, schedule: Q01DX009 (ip), vehicle: Klucel (hydroxypropylcellulose) (HPC)
[2] = endpoint: mean survival time, dose: 200.0 mg/kg/injection, schedule: Q01DX009 (ip), vehicle: Klucel (hydroxypropylcellulose) (HPC)
[3] = endpoint: mean survival time, dose: 400.0 mg/kg/injection, schedule: Q01DX009 (ip), vehicle: Klucel (hydroxypropylcellulose) (HPC)
[4] = endpoint: mean survival time, dose: 50.0 mg/kg/injection, schedule: Q01DX009 (ip), vehicle: Klucel (hydroxypropylcellulose) (HPC)
[5] = endpoint: mean survival time, dose: 50.0 mg/kg/injection, schedule: Q04DX003 (ip), vehicle: Klucel (hydroxypropylcellulose) (HPC)
[6] = endpoint: mean survival time, dose: 100.0 mg/kg/injection, schedule: Q04DX003 (ip), vehicle: Klucel (hydroxypropylcellulose) (HPC)
[7] = endpoint: mean survival time, dose: 200.0 mg/kg/injection, schedule: Q04DX003 (ip), vehicle: Klucel (hydroxypropylcellulose) (HPC)
[8] = endpoint: mean survival time, dose: 75.0 mg/kg/injection, schedule: Q01DX009 (ip), vehicle: saline
[9] = endpoint: mean survival time, dose: 400.0 mg/kg/injection, schedule: Q04DX003 (ip), vehicle: Klucel (hydroxypropylcellulose) (HPC)

## CCOC(=S)Nc1ccccc1[N+](=O)[O-]
endpoint: mean survival time, dose: 100.0 mg/kg/injection, schedule: Q04DX002 (ip), vehicle: gum acacia
  T/C: 102 % of control
endpoint: mean survival time, dose: 200.0 mg/kg/injection, schedule: Q04DX002 (ip), vehicle: gum acacia
  T/C: 105 % of control
endpoint: mean survival time, dose: 400.0 mg/kg/injection, schedule: Q04DX002 (ip), vehicle: gum acacia
  T/C: 102 % of control

## O=C(Nc1cccc([N+](=O)[O-])c1)Nc1ccc(F)c([N+](=O)[O-])c1
[1]
  T/C: 102 % of control
[2]
  T/C: 101 % of control
[3]
  T/C: 98 % of control

## O=C(O)CCN1C(=O)CCC1=O
endpoint: mean survival time, dose: 100.0 mg/kg/injection, schedule: Q01DX009 (ip), vehicle: saline
  T/C: 91 % of control
endpoint: mean survival time, dose: 100.0 mg/kg/injection, schedule: Q04DX003 (ip), vehicle: saline sonified
  T/C: 105 % of control
endpoint: mean survival time, dose: 200.0 mg/kg/injection, schedule: Q01DX009 (ip), vehicle: saline
  T/C: 94 % of control
endpoint: mean survival time, dose: 200.0 mg/kg/injection, schedule: Q04DX003 (ip), vehicle: saline sonified
  T/C: 92 % of control
endpoint: mean survival time, dose: 400.0 mg/kg/injection, schedule: Q01DX009 (ip), vehicle: saline
  T/C: 105 % of control
endpoint: mean survival time, dose: 400.0 mg/kg/injection, schedule: Q04DX003 (ip), vehicle: saline sonified
  T/C: 95 % of control

## CC(C)NC1(C(N)=O)CCN(Cc2ccccc2)CC1
[4]
  T/C: 95 % of control
[5]
  T/C: 98 % of control
[1]
  T/C: 100 % of control
[6]
  T/C: 93 % of control
[2]
  T/C: 104 % of control
[7]
  T/C: 95 % of control

## O=C(O)C12CCC(CC1)CC2
[8]
  T/C: 100 % of control
endpoint: mean survival time, dose: 100.0 mg/kg/injection, schedule: Q01DX001 (ip), vehicle: saline
  T/C: 93 % of control
endpoint: mean survival time, dose: 150.0 mg/kg/injection, schedule: Q01DX009 (ip), vehicle: saline
  T/C: 103 % of control
endpoint: mean survival time, dose: 200.0 mg/kg/injection, schedule: Q01DX001 (ip), vehicle: saline
  T/C: 88 % of control
endpoint: mean survival time, dose: 300.0 mg/kg/injection, schedule: Q01DX009 (ip), vehicle: saline
  T/C: 100 % of control
endpoint: mean survival time, dose: 400.0 mg/kg/injection, schedule: Q01DX001 (ip), vehicle: saline
  T/C: 90 % of control

## CC1C2CCC1(C)C(C=O)C2 (stereo not drawn)
endpoint: mean survival time, dose: 75.0 mg/kg/injection, schedule: Q01DX001 (ip), vehicle: saline
  T/C: 93 % of control
endpoint: mean survival time, dose: 150.0 mg/kg/injection, schedule: Q01DX001 (ip), vehicle: saline
  T/C: 88 % of control
endpoint: mean survival time, dose: 300.0 mg/kg/injection, schedule: Q01DX001 (ip), vehicle: saline
  T/C: 88 % of control

## CCNC(=O)C1C2C=CC(CC2)C1C(=O)NCC (stereo not drawn)
endpoint: mean survival time, dose: 100.0 mg/kg/injection, schedule: Q04DX003 (ip), vehicle: saline with Tween-80
  T/C: 87 % of control
endpoint: mean survival time, dose: 200.0 mg/kg/injection, schedule: Q04DX003 (ip), vehicle: saline with Tween-80
  T/C: 96 % of control
endpoint: mean survival time, dose: 400.0 mg/kg/injection, schedule: Q04DX003 (ip), vehicle: saline with Tween-80
  T/C: 96 % of control

## OCCN1CCN(CCCN2c3ccccc3Sc3cccnc32)CC1
endpoint: mean survival time, dose: 4.68 mg/kg/injection, schedule: Q01DX009 (ip), vehicle: saline
  T/C: 94 % of control
endpoint: mean survival time, dose: 9.37 mg/kg/injection, schedule: Q01DX009 (ip), vehicle: saline
  T/C: 104 % of control
endpoint: mean survival time, dose: 18.75 mg/kg/injection, schedule: Q01DX009 (ip), vehicle: saline
  T/C: 113 % of control
endpoint: mean survival time, dose: 20.0 mg/kg/injection, schedule: Q01DX009 (ip), vehicle: saline
  T/C: 111 % of control
endpoint: mean survival time, dose: 37.5 mg/kg/injection, schedule: Q01DX009 (ip), vehicle: saline
  T/C: 115 % of control
endpoint: mean survival time, dose: 40.0 mg/kg/injection, schedule: Q01DX009 (ip), vehicle: saline
  T/C: 112 % of control
[8]
  T/C: 107 % of control
endpoint: median survival time, dose: 20.0 mg/kg/injection, schedule: Q01DX009 (ip), vehicle: saline
  T/C: 113 % of control
endpoint: median survival time, dose: 40.0 mg/kg/injection, schedule: Q01DX009 (ip), vehicle: saline
  T/C: 112 % of control

## COc1cccc2c1C(=O)c1c(O)c3c(c(O)c1C2=O)C[C@@](O)(/C(C)=N\NC(N)=O)C[C@@H]3OC1CC(N)C(O)C(C)O1 (stereo partly drawn)
endpoint: mean survival time, dose: 1.5 mg/kg/injection, schedule: Q01DX009 (ip), vehicle: saline
  T/C: 107 % of control
endpoint: mean survival time, dose: 2.0 mg/kg/injection, schedule: Q04DX003 (ip), vehicle: water
  T/C: 110 % of control
endpoint: mean survival time, dose: 3.0 mg/kg/injection, schedule: Q01DX009 (ip), vehicle: saline
  T/C: 112 % of control
endpoint: mean survival time, dose: 3.12 mg/kg/injection, schedule: Q01DX009 (ip), vehicle: saline
  T/C: 113 % of control
endpoint: mean survival time, dose: 4.0 mg/kg/injection, schedule: Q04DX003 (ip), vehicle: water
  T/C: 120 % of control
endpoint: mean survival time, dose: 6.0 mg/kg/injection, schedule: Q01DX009 (ip), vehicle: saline
  T/C: 117 % of control
endpoint: mean survival time, dose: 6.25 mg/kg/injection, schedule: Q01DX009 (ip), vehicle: saline
  T/C: 150 % of control
endpoint: mean survival time, dose: 8.0 mg/kg/injection, schedule: Q04DX003 (ip), vehicle: saline
  T/C: 111 % of control
endpoint: mean survival time, dose: 12.5 mg/kg/injection, schedule: Q01DX009 (ip), vehicle: saline
  T/C: 155 % of control
endpoint: mean survival time, dose: 12.5 mg/kg/injection, schedule: Q04DX003 (ip), vehicle: saline
  T/C: 124 % of control
endpoint: mean survival time, dose: 24.0 mg/kg/injection, schedule: Q01DX009 (ip), vehicle: saline
  T/C: 124 % of control
endpoint: mean survival time, dose: 50.0 mg/kg/injection, schedule: Q04DX003 (ip), vehicle: saline
  T/C: 157 % of control
endpoint: mean survival time, dose: 125.0 micrograms/kg/injection, schedule: Q04DX003 (ip), vehicle: water
  T/C: 105 % of control
endpoint: mean survival time, dose: 250.0 micrograms/kg/injection, schedule: Q04DX003 (ip), vehicle: water
  T/C: 107 % of control
endpoint: mean survival time, dose: 500.0 micrograms/kg/injection, schedule: Q04DX003 (ip), vehicle: water
  T/C: 108 % of control
endpoint: mean survival time, dose: 1000.0 micrograms/kg/injection, schedule: Q04DX003 (ip), vehicle: water
  T/C: 107 % of control
endpoint: mean survival time, dose: 2000.0 micrograms/kg/injection, schedule: Q04DX003 (ip), vehicle: water
  T/C: 110 % of control

## CCCCCCCCCCCC(N)=O
endpoint: mean survival time, dose: 100.0 mg/kg/injection, schedule: Q01DX001 (ip), vehicle: other
  T/C: 104 % of control
endpoint: mean survival time, dose: 100.0 mg/kg/injection, schedule: Q04DX002 (ip), vehicle: Klucel (hydroxypropylcellulose) (HPC)
  T/C: 104 % of control
endpoint: mean survival time, dose: 200.0 mg/kg/injection, schedule: Q01DX001 (ip), vehicle: other
  T/C: 93 % of control
endpoint: mean survival time, dose: 200.0 mg/kg/injection, schedule: Q04DX002 (ip), vehicle: Klucel (hydroxypropylcellulose) (HPC)
  T/C: 110 % of control
endpoint: mean survival time, dose: 400.0 mg/kg/injection, schedule: Q01DX001 (ip), vehicle: other
  T/C: 96 % of control
endpoint: mean survival time, dose: 400.0 mg/kg/injection, schedule: Q04DX002 (ip), vehicle: Klucel (hydroxypropylcellulose) (HPC)
  T/C: 93 % of control

## [CH3][Sb]([CH3])([CH3])([O]C(=O)CF)[O]C(=O)CF
endpoint: mean survival time, dose: 1.25 mg/kg/injection, schedule: Q04DX003 (ip), vehicle: saline with Tween-80
  T/C: 91 % of control
endpoint: mean survival time, dose: 2.5 mg/kg/injection, schedule: Q04DX003 (ip), vehicle: saline with Tween-80
  T/C: 96 % of control
endpoint: mean survival time, dose: 5.0 mg/kg/injection, schedule: Q04DX003 (ip), vehicle: saline with Tween-80
  T/C: 110 % of control
endpoint: mean survival time, dose: 5.0 mg/kg/injection, schedule: Q04DX003 (ip), vehicle: saline
  T/C: 107 % of control

## CCOC12c3cc(OC)ccc3N(S(=O)(=O)c3ccc(C)cc3)CC1C2(Br)Br (stereo not drawn)
[1]
  T/C: 97 % of control
[6]
  T/C: 100 % of control
[2]
  T/C: 87 % of control
[7]
  T/C: 100 % of control
[3]
  T/C: 94 % of control
[9]
  T/C: 91 % of control

## CC1(C)Cc2ccccc2C1=O
endpoint: mean survival time, dose: 100.0 mg/kg/injection, schedule: Q04DX002 (ip), vehicle: saline with Tween-80
  T/C: 97 % of control
endpoint: mean survival time, dose: 200.0 mg/kg/injection, schedule: Q04DX002 (ip), vehicle: saline with Tween-80
  T/C: 91 % of control
endpoint: mean survival time, dose: 400.0 mg/kg/injection, schedule: Q04DX002 (ip), vehicle: saline with Tween-80
  T/C: 94 % of control

## CC12c3ccccc3C(c3c1ccc1ccccc31)C1C(=O)OC(=O)C12 (stereo not drawn)
[6]
  T/C: 96 % of control
[7]
  T/C: 104 % of control
[9]
  T/C: 98 % of control

## CCC(C)Nc1ccccc1 (stereo not drawn)
[4]
  T/C: 102 % of control and 104 % of control
[5]
  T/C: 101 % of control
[1]
  T/C: 102 % of control and 103 % of control
[6]
  T/C: 101 % of control
[2]
  T/C: 94 % of control and 87 % of control
[7]
  T/C: 97 % of control

## O=C1CCC2c3ccccc3-c3cccc1c32 (stereo not drawn)
endpoint: mean survival time, dose: 50.0 mg/kg/injection, schedule: Q01DX001 (ip), vehicle: carboxymethylcellulose (CMC)
  T/C: 100 % of control
endpoint: mean survival time, dose: 100.0 mg/kg/injection, schedule: Q01DX001 (ip), vehicle: carboxymethylcellulose (CMC)
  T/C: 91 % of control
endpoint: mean survival time, dose: 200.0 mg/kg/injection, schedule: Q01DX001 (ip), vehicle: carboxymethylcellulose (CMC)
  T/C: 96 % of control
endpoint: mean survival time, dose: 400.0 mg/kg/injection, schedule: Q01DX001 (ip), vehicle: carboxymethylcellulose (CMC)
  T/C: 102 % of control
